The record followed here is US8974848B1, “Ingestible product and method for enhancing the appearance and quality of teeth in-vivo” (priority 2008, dated 2015).

Assay [1] is described as follows: accelerated coffee staining test: hydroxyapatite disks immersed in concentrated coffee with or without additive. Conditions: 7 minutes immersion in coffee (11 grams grounds to 0.5 cups water); uniform scale, 0 = un-stained disk, 5 = coffee without additive. How it is done: Initially, an accelerated staining test was performed using a very strong coffee concentrate with short periods of immersion. This protocol emulates the actual oral staining process; i.e., live teeth aren't generally submerged in coffee for long periods of time since coffee is only held in the mouth for short periods of time, and the residues are rapidly diluted by saliva. In addition, coffee chemistry and pH changes rapidly due to temperature-excited oxidation—which results in significant acid formation in the first 20 minutes after brewing. As a result, coffee immersion in-vitro for times exceeding 20 minutes exposes test-items to a chemical environment which is not representative of that found in a mouth during a typical human consumption of coffee.
As one representative example of multiple tests using CHITOSAN NICOTINATE as an essential substance to prevent staining of hydroxyapatite (as found in tooth enamel), 0.02 grams of CHITOSAN NICOTINATE was placed in one of two containers of coffee brewed with 11.0 grams of coffee grounds to 0.5 cups water. Then disks made of hydroxyapatite were immersed in each container for 7 minutes time; and subsequently compared to establish the degree of staining. For meaningful comparisons of staining, the non-CHITOSAN NICOTINATE coffee was used as the dark stain standard, with an arbitrary value of 5. […]

The nature of assay [2]: stain reversal: coffee-stained hydroxyapatite disk immersed in brewed coffee containing additive. Conditions: previously coffee-stained disk immersed 15 minutes in brewed coffee with additive; original stain 100%, un-stained disk 0%. How it is done: In addition, when a previously-coffee-stained hydroxyapatite disk was half-immersed within the brewed coffee for 15 minutes, the coffee-immersed area was lightened by 10%, where the original stain is said to be 100% and an un-stained disk is said to be 0%.
As one example of multiple tests using protein-splitting enzymes as an essential ingredient to reverse staining of hydroxyapatite, 20 mg of Papain was placed in one container of coffee, which was then brewed with 11 grams of coffee grounds to 0.5 cups water. For this series of tests, only coffee-stained hydroxyapatite disks were then immersed in the freshly brewed coffee for 15 minutes time.

Turning to `CS(C)(=O)=O` [METHYLSULFONYLMETHANE (DIMETHYLSULFONE), METHYLSULFONYLMETHANE], the “degree of staining of hydroxyapatite disks” value in assay [1] stood at 2.

B1: Papain: protein-splitting enzyme, plant protease (protein, UniProt P00784 134-345, looked up)
Papain: IPEYVDWRQKGAVTPVKNQGSCGSCWAFSAVVTIEGIIKIRTGNLNEYSEQELLDCDRRSYGCNGGYPWSALQLVAQYGIHYRNTYPYEGVQRYCRSREKGPYAAKTDGVRQVQPYNEGALLYSIANQPVSVVLEAAGKDFQLYRGGIFVGPCGNKVDHAVAAVGYGPNYILIKNSWGTGWGENGYIRIKRGTGNSYGVCGLYTSSFYPVKN
In the case of B1, the “coffee-immersed stained area lightened by” value in assay [2] is 20%.
